Data: patent US7388124B2 (priority 2001, dated 2008)
Several values for one entry are separate records, joined by “and”; a condition that tells them apart may be missing. Equal entries are not always repeated.

What was measured:
rat pain model variants [1] = test: Dynamic mechanical allodynia (camel hair brush) in rat pain model variants; format: in vivo, Sprague Dawley rats; conditions: Morphine Sulfate 5 mg/kg (IP); n=12 rats; Pre Avg 4.75; p=1.5E-6
Experimental: (§1) The methods of preparation and testing were similar for all the variant pain models described in this example. Male Sprague Dawley rats initially weighing between 150 and 175 grams were housed singly. Baseline behaviors to stimulations of the paw on which the procedure was to be performed were recorded over several sessions after accommodation of 3-4 days, and the results were averaged and used as the baseline control data. The pain behaviors studied were static mechanical allodynia (e.g., light touch stimulation with von Frey fibers 4.56, 4.73, 4.93, and/or 5.07), dynamic mechanical allodynia (e.g., stimulation with moving camel hair brush), and/or mechanical hyperalgesia (e.g., pinprick stimulation).
(§2) After the baseline control data was collected, the specified procedure with a gel was performed near the chosen nerve of each variant group (see Tables 2-6 and 8-10), then the rats were tested post procedurally and intermittently for up to 77 days for behavioral changes (see Tables 2-6 and 8-11) and for their responses to substances with analgesic properties (see Tables 7 and 12).
(§3) The stimuli used to elicit pain behavior were the von Frey fibers, camel hair brush and pinprick, with 6 stimulations of each stimulus. Each variant pain model had the same sequence of stimuli with the positive responses averaged and a student T-test performed for the significance of the post procedural responses as compared to the baseline control data (see Tables 2-6 and 11); and for the post-analgesic responses as compared to the pre-analgesic behavioral data (see Tables 7 and 12).
The tunnels identified by the above studies were then used for the placement of the biocompatible gels by the chosen peripheral nerves. The gelatinous or viscous substances (i.e., the gels) placed by the peripheral nerves or nerve roots contained collagen (e.g., AVITENE® and gelatin) or hydrogels. […]

rat pain model variants [2] = format: in vivo, Sprague Dawley rats; conditions: Morphine Sulfate 5 mg/kg (IP), n=12 rats
Experimental: Male Sprague Dawley rats initially weighing between 150 and 175 grams were housed singly. […] The pain behaviors studied were static mechanical allodynia (e.g., light touch stimulation with von Frey fibers 4.56, 4.73, 4.93, and/or 5.07), dynamic mechanical allodynia (e.g., stimulation with moving camel hair brush), and/or mechanical hyperalgesia (e.g., pinprick stimulation).
as §2
The stimuli used to elicit pain behavior were the von Frey fibers, camel hair brush and pinprick, with 6 stimulations of each stimulus.
(§4) The tunnels identified by the above studies were then used for the placement of the biocompatible gels by the chosen peripheral nerves. The gelatinous or viscous substances (i.e., the gels) placed by the peripheral nerves or nerve roots contained collagen (e.g., AVITENE® and gelatin) or hydrogels. The “collagen gel” used in the present study was composed of 0.8 grams of collagen as AVITENE® (microfibrillar collagen hemostat flour, Davol Inc., Cranston, R.I. 02920) and 0.7 grams of collagen as gelatin (Knox gelatin, Kraft Foods, Northfield, Ill. 60093) mixed with 14 cc of normal saline until homogenous. Then the collagen mixture was placed in a PYREX® bowl resting in a paper bowl and covered with a ceramic saucer, then heated for 20 seconds at full power in a microwave. The resulting viscous mixture was kept fluid in a warm water bath at 100-110° F., until used for the placement procedure. The wound hydrogels used in the present study were two types: one contains alginate (SAF-Gel® from ConvaTec of E. R. Squibb & Sons, Princeton, N.J.) and the other contains acemannan from Aloe vera L. (Carrasyn®V from Carrington Laboratories, Irving, Tex.). […] Such hydrogels are used in the care of open dermal wounds as well as in first and second degree burns since they provide a closed moist environment for wound healing.
(§5) The rats were anesthesized with 1.5% to 2% isoflurane for the percutaneous kinesthetic placement of the above “gels” by the specified nerves. Using an angled 23 gauge thin wall 1″ needle, approximately 0.1 cc-0.2 cc of gel was placed percutaneously with kinesthetic technique in the anatomically defined fascial tunnels of the chosen peripheral nerves as described below.
(§6) The doses were given intraperitoneally (I.P.) and behavioral stimulus testing began 40-80 minutes after the dose. The student's t-test (p<0.05) was performed for determining the significance of changes in behaviors associated with pain after the analgesic was administered.

[3] = tested on: Mice with Neural Compression; test: von Frey fiber and camel hair brush testing for mechanical allodynia in mice with collagen placed by the posterior tibial nerve; format: in vivo; conditions: for Average # Paw Withdrawals: of 10 stimulations, n=10 mice
Experimental: Biocompatible collagen was prepared for use in the present study. The collagen source was dry gelatin that was prepared using sterile techniques. The dry collagen was measured to 2.5 grams and mixed with 7.5 cc of sterile normal saline. The mixture was heated for 30 seconds in a microwave on 80% power, The mixture was kept soft in warm water (approximately 100 to 110 degrees).
The consistency of the resulting warm collagen was such that it was able to pass through a 23 gauge needle. Humidity and other factors such as temperature can affect the consistency of the substance. 1-cc syringes were used for injection of 0.2 to 0.25 cc of collagen. For the injection, 23 gauge 1″ standard luer lock hypodermic needles were used. The needles were very slightly dulled with a metal file at the tip and edges using sterile technique. The needles were angled at the midpoint with a bevel tip up. The angle was between 30 and 45 degrees, but any angle that allows for easy placement of the injected substance could be used. The needles were then attached to the collagen-filled one cc syringes. The syringes were kept in a warm water bath (100 to 110° F.) to maintain proper gel consistency.
The mice were lightly anesthetized with 1.5 to 2% isoflurane. The mice were then stabilized and aligned such that the left posterior leg was in view. The external anatomic landmarks of the posterior popliteal area were identified. The internal anatomy of this area including the posterior tibial nerve with its artery was mentally visualized with kinesthetic techniques. Kinesthetic techniques are methods that use the kinesthetic sense or the integration of the senses by which movement, mass, turgor, shape, resistance, elasticity, temperature, spatial relationships and position are commonly perceived. It also refers to the integrated use of multiple senses such as touch, proprioception, vision, and hearing. After location of the site for placement of the gel, the needle and syringe were then removed from the warm water bath. The distal portion of the needle was held loosely parallel to the tibia. The needle was allowed to gently penetrate through the dermis by pulling the skin taut over the popliteal fossa. With careful avoidance of tissue resistance, the needle tip, bevel up, was gently slipped beneath the fascial edge of the soleus muscle by the tibial nerve and artery into the deep posterior fascial compartment of the posterior tibial neurovascular tunnel, which is the neurovascular tunnel for the posterior tibial nerve and its proximal branches. When the tip of the needle was at the mid soleus muscle belly, the collagen mixture was slowly injected into the posterior tibial tunnel. The needle was removed and the animals allowed to recover from the anesthetic. All animals were normally moving freely within 20 minutes of anesthesia withdrawal.
Two days after placement of the collagen gel around the nerve, von Frey testing was again performed. Von Frey testing continued for 49 days. […]

[4] = tested on: open surgical rat model for CRPS I; conditions: prior art surgical model, Reyna et al. 1999; cited from earlier work
rat pain model variants [5] = test: Mechanical hyperalgesia (pinprick) in rat pain model variants; format: in vivo, Sprague Dawley rats; conditions: for Pinprick # ST[…]-ANALGESIC: of 6
Experimental: as §1, §2, §3, §4, §5, §6

rat pain model variants [6] = test: Analgesic effect in rat neurogenic pain model variants (overall statement); format: in vivo, Sprague Dawley rats; conditions: morphine 5 mg/kg IP, Tables 7 and 12, within 40-80 minutes, sulfate
Experimental: as §1, §2, §3, §4, §5, §6

For `CN1CC[C@]23c4c5ccc(O)c4O[C@H]2[C@@H](O)C=C[C@H]3[C@H]1C5.O=S(=O)(O)O` [morphine, morphine sulfate], the “Post Avg, Average Positive stimulations out of 6 total, Stim S Brush” value (rat pain model variants [1]) was 1.69, the “Post Avg, Average Positive stimulations out of 6 total, Stim A vF 4.56” value (rat pain model variants [2]; Pre Avg 2.83, p=1.6E-4) was 0.33 and the “Post Avg, Average Positive stimulations out of 6 total, Stim B vF 4.93” value (rat pain model variants [2]; Pre Avg 3.33, p=1.3E-6) was 0.58. For the same molecule, the “Post Avg, Average Positive stimulations out of 6 total, Stim C vF 5.07” value (rat pain model variants [2]; Pre Avg 3.33, p=6.1E-6) was 0.83, the “Average # Paw Withdrawals” value ([3]; morphine 1 mg/kg IP, post procedure day 49 (8.71 before dose)) was 8.71 and the “Average # Paw Withdrawals” value ([3]; morphine 5 mg/kg IP, post procedure day 51 (8.88 before dose)) was 6.66. For the same molecule, the “Analgesic response (mechanical allodynia)” value ([3]; morphine at least 5 mg/kg IP) was “Analgesic responses were shown”, the analgesic response [4] was “exhibited an analgesic response” and the “Pinprick # ST[…]-ANALGESIC” value (rat pain model variants [5]; Morphine 5 mg/kg IP, 1 rat peroneal n. with Avitene collagen, pre 6) was 1. The “Pinprick # ST[…]-ANALGESIC” value (rat pain model variants [5]; Morphine 5 mg/kg IP, 1 rat tibial n. with Acemannan hydrogel, pre 6) was 2, the “Pinprick # ST[…]-ANALGESIC” value (rat pain model variants [5]; Morphine 5 mg/kg IP, 1 rat tibial n. with Alginate hydrogel, pre 6) was 3 and the “Pinprick # ST[…]-ANALGESIC” value (rat pain model variants [5]; Morphine 5 mg/kg IP, single rats sciatic n. with Alginate hydrogel (two rats, pre 6 and 6), sulfate) was 2 and 4. The “Pinprick # ST[…]-ANALGESIC, Total” value (rat pain model variants [5]; Morphine 5 mg/kg IP, total of 5 rats, pre total 30, pre vs post p=2.1E-3) was 12, the “Post Avg, Average Positive stimulations out of 6 total, Stim PP Pin Prick” value (rat pain model variants [5]; Morphine Sulfate 5 mg/kg (IP), n=12 rats, Pre Avg 5.67, p=2.0E-10) was 2.17 and the “analgesic effect (significance)” value (rat pain model variants [6]; listed as Morphine) was “significant analgesic effect”. For the same molecule, the “analgesic effect (significance)” value (rat pain model variants [6]; listed as morphine Sulfate) was “significant analgesic effects”.
